# Data from patent publication US20250215017A1, “TGF-ß INHIBITOR COMPOUND AND USE THEROF” (Medinno Pharmaceutical Technology (Zhuhai) Co., Ltd., priority 2022, published 2025).
# Target: human TGFβR1 (Homo sapiens (Human), UniProt P36897)
# Test: ADP-Glo kinase activity assay: TGFβR1 phosphorylates TGFβR1tide
# Type: biochemical
# Settings: ATP 5 uM, TGFβR1 0.5 ng/ul, TGFβR1tide 0.1 ug/ul, 60 minutes at room temperature
# Method: The principle of the activity assay was that TGFβR1 phosphorylates the substrate TGFβR1tide, consuming ATP in the process. This experiment employed the ADP-Glo method to detect kinase activity and determine the IC50 value, which was used to evaluate the inhibitory ability of the test compounds against human TGFβR1. In the experiment, DSM was used as a negative control, and LY364947 was used as a positive control. The specific experimental steps were as follows. Compounds were diluted 4-fold in DMSO in a dilution plate, with the final starting concentration of the compounds being 10 μM, across 10 concentration gradient points. The compounds were then further diluted 50-fold into the kinase reaction buffer and incubated on a shaker for 20 minutes. Kinase was formulated with an enzyme reaction buffer. 2 μl kinase was added to each well of the reaction plate. 1 μl of the compound diluted in buffer was added to each well, and then the plate was sealed with a sealing membrane and centrifuged at 1000 g for 30 seconds, leaving it at room temperature for 10 minutes. Solutions of TGFβR1tide and ATP were prepared with the kinase reaction buffer, and 2 μL of the TGFβR1tide/ATP solution was added to the reaction plate. The plate was sealed with a sealing film and centrifuged at 1000 g for 30 seconds. It was allowed to react at room temperature for 60 minutes. Subsequently, 4 μL of ADP-Glo was transferred to a 384-well reaction plate and centrifuged at 1000 rpm/min for 1 minute, followed by incubation at 25° C. for 40 minutes. Then, 8 μL of Detection solution was transferred to the 384-well reaction plate and centrifuged at 1000 rpm/min for 1 minute, after which it was incubated at 25° C. for 40 minutes. The RLU (Relative Luminescence Unit) signal was read using a BMG microplate reader, which was used to characterize the degree of kinase activity.
# 3.1 The inhibition rate was calculated as follows: inhibition rate of compound (% inh)=100%−(compound−positive control)/(negative control−positive control)*100%.
# The IC50 (half inhibition concentration) of a compound was obtained using the following non-linear fitting equation, wherein data analysis was performed using Graphpad 7.0 software.
# • 3.3.1 After an experimenter completed the report writing, another experimenter conducted a second inspection to ensure the accuracy of data analysis. • 3.3.2 Data were exported from BMG and analyzed manually. • 3.3.2.1 The ratios were converted to inhibition rates and IC50 was calculated by Prism GraphPad 7.0 from the inhibition rates. • 3.3.2.2 IC50 was calculated again by the ratios to verify accuracy of the results.
# human TGFβR1, sequence (P36897 34-503): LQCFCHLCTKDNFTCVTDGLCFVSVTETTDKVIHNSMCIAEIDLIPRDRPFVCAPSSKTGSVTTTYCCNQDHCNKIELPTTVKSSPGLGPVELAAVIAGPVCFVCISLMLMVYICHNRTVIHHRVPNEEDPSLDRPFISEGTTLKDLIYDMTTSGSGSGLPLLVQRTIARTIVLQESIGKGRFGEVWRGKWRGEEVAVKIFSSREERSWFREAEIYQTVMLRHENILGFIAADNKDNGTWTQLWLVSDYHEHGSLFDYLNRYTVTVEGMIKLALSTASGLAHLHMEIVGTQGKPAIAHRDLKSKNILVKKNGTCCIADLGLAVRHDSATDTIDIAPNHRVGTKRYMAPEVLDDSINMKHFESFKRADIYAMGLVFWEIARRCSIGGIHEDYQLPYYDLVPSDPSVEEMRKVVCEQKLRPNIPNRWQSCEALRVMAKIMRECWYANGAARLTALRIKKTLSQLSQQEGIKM
row,Compound,IC50 [nM]
1,"Cc1cccc(-c2nc3n(c2-c2ccn4nccc4c2)CC2CC32)n1 (stereo not drawn) [Compound 36, 2-(6-Methylpyridin-2-yl)-3-(pyrazolo[1,5-a]pyridin-5-yl)-5,5a,6,6a-tetrahydrocyclopropyl[3,4]pyrrolo[1,2-a]imidazole]",13
2,"Cc1cccc(-c2nc3n(c2-c2ccc4ncoc4c2)CC2CC32)n1 (stereo not drawn) [Compound 20, 6-(2-(6-Methylpyridin-2-yl)-5,5a,6,6a-tetrahydrocyclopropane[3,4]pyrrolo[1,2-a]imidazol-3-yl)benzo[d]oxazole]",38
3,"Cc1cccc(-c2nc3n(c2-c2ccc4nccn4c2)CC2CC32)n1 (stereo not drawn) [Compound 19, 3-(Imidazolo[1,2-a]pyridin-6-yl)-2-(6-methylpyrridin-2-yl)-5,5a,6,6a-tetrahydrocyclopropane[3,4]pyrrolo[1,2-a]imidazole]",50
4,"Cc1cccc(-c2nc3n(c2-c2ccc4nc[nH]c4c2)CC2CC32)n1 (stereo not drawn) [Compound 35, 3-(1H-Benzo[d]imidazol-6-yl)-2-(6-methylpyridin-2-yl)-5,5a,6,6a-tetrahydrocyclopropyl[3,4]pyrrolo[1,2-a]imidazole]",12
5,"Cc1cccc(-c2nc3n(c2-c2ccc4ncnn4c2)CC2CC32)n1 (stereo not drawn) [Compound 18, 3-([1,2,4]Triazolyl[1,5-a]pyridin-6-yl)-2-(6-methylpyridin-2-yl)-5,5a,6,6a-tetrahydrocyclopropane[3,4]pyrrolo[1,2-a]imidazole]",5.6
6,"Cc1cccc(-c2nc3n(c2-c2ccc4ncsc4c2)CC2CC32)n1 (stereo not drawn) [Compound 21, 6-(2-(6-Methylpyridin-2-yl)-5,5a,6,6a-tetrahydrocyclopropane[3,4]pyrrolo[1,2-a]imidazol-3-yl)benzo[d]thiazole]",6
7,"Cc1cccc(-c2nc3n(c2-c2ccc4ncn(C)c4c2)CC2CC32)n1 (stereo not drawn) [Compound 16, 3-(1-Methyl-1H-benzo[d]imidazol-6-yl)-2-(6-methylpyridin-2-yl)-5,5a,6,6a-tetrahydrocyclopropane[3,4]pyrrolo[1,2-a]imidazole]",4.9
8,"Cc1cccc(-c2nc3n(c2-c2ccc4[nH]ncc4c2)CC2CC32)n1 (stereo not drawn) [Compound 5, 3-(1H-Indazol-5-yl)-2-(6-methylpyridin-2-yl)-5,5a,6,6a-tetrahydrocyclopropane[3,4]pyrrolo[1,2-a]imidazole]",15
9,"Cc1cccc(-c2nc3n(c2-c2ccnc(-c4nc5c([nH]4)CNC5)c2)CC2CC32)n1 (stereo not drawn) [Compound 8, 2-(6-Methylpyridin-2-yl)-3-(2-(1,4,5,6-tetrahydropyrrolo[3,4-d]imidazol-2-yl)pyridin-4-yl)-5,5a,6,6a-tetrahydrocyclopropane[3,4]pyrrolo[1,2-a]imidazole]",22
